Active and inactive are the calls of the source.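 How the source made its calls: active means EC50 at or below 10 µM; inactive means EC50 above 10 µM.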
Molecular target: Nuclear hormone receptor DAF-12 (Heterodera glycines)
Experiment: hgDAF-12 reporter activation EC50 – cell-based, luminescence, HEK293, dose response (AID 743059);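 further: agonist potency for compounds that raise hgDAF-12 reporter luminescence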
Conditions: HEK293 hgDAF-12 reporter, luciferase luminescence

| Compound | EC50 |
| --- | --- |
| Cc1cc(C(=O)CSc2ncccn2)c(C)n1Cc1ccco1 | > 67.5 µM (inactive) |
| O=C1/C(=C\c2cccs2)Sc2ccc3ccccc3c21 | > 67.5 µM (inactive) |
| Cc1ccc(S(=O)(=O)/N=C(/NC(=S)Nc2ccccc2)c2ccccc2)cc1 | > 67.5 µM (inactive) |
| O=C(NCC1CCCO1)c1cc(-c2ccccc2F)no1 (centres undefined) | inactive |
| Cc1ccc2nc(C)/c(=N\O)c(C)nc2c1 | > 67.6 µM (inactive) |
| O=C(Nc1ccc(Cl)cn1)c1cc2ccccc2o1 | > 67.5 µM (inactive) |
| COc1ccc(/C=C2\SC(=O)N(CCNC(=O)C3CC4C=CC3C4)C2=O)cc1 (centres undefined) | > 67.5 µM (inactive) |
| Cc1ccc(NC(=S)NC(=O)C2CCCC2)c(Br)c1 | > 67.5 µM (inactive) |
| COc1ccccc1/C=N\N=C(\N)c1ccccn1 | > 67.6 µM (inactive) |
| N#Cc1c(Br)n(C2OC(CO)C(O)C2O)c2ncnc(N)c12 (centres undefined) | > 67.5 µM (inactive) |
| COC1=C/C(=C/c2c(N)n3nc(-c4ccc(C)cc4)sc3nc2=O)C=CC1=O | > 67.5 µM (inactive) |
| CCOC(=O)c1cnc(SCCc2ccccc2)nc1N | > 67.5 µM (inactive) |
| c1ccc(N=Nc2ccc(C3=NCCO3)cc2)cc1 | > 67.6 µM (inactive) |
| O=c1c2ccccc2nnn1CCc1ccccc1 | > 67.4 µM (inactive) |
| Cn1c(NCc2c[nH]c3ccccc23)nc2ccccc21 | > 67.5 µM (inactive) |
| Cc1cc(OCc2cc(C(=O)NCc3cc(C(C)C)no3)no2)cc(C)c1Cl | > 67.5 µM (inactive) |
| Cc1ccc(SCCN2CCC(C)CCC2=O)cc1 (centres undefined) | > 67.5 µM (inactive) |
| Cc1ccc(N/N=C(\C#N)C(=N)N2CCCCCC2)cc1 | > 67.5 µM (inactive) |
| O=C(Nc1ccccn1)c1csc2c1CCCC2 | > 67.5 µM (inactive) |
| CCOC(=O)N1CCC(NC(=O)c2cc3ccccn3n2)CC1 | > 67.5 µM (inactive) |
| Cc1ccc(-c2nc(-c3ccncc3)no2)cc1C | > 67.5 µM (inactive) |
| Oc1[nH]c2ccccc2c1N=Nc1ccccc1F | > 67.6 µM (inactive) |

| Compound | EC50 |
| --- | --- |
| CCNC(=S)NNC(=O)c1cc(-c2ccc(OCC)cc2)nc2ccccc12 | > 67.5 µM (inactive) |
| ON=C(CCc1ccccc1)c1ccccc1 | > 67.5 µM (inactive) |
| Cc1ccc(-n2ncc3ccccc3c2=O)cc1Cl | > 67.6 µM (inactive) |
| Cc1ccc(Nc2ncccc2C(N)=O)cc1 | > 67.4 µM (inactive) |
| COc1ccccc1-c1noc(-c2cccs2)n1 | > 67.5 µM (inactive) |
| Cc1ccc(SCCSc2ncccn2)cc1 | > 67.5 µM (inactive) |
| Cc1ccnc(NC(=O)/C=C/c2cccs2)c1 | > 67.6 µM (inactive) |
| Cc1ccc(N/C=C(/C#N)c2ccsc2)cc1C | > 67.5 µM (inactive) |
| OC(c1ccccc1)c1nc(-c2cnc3ccccc3c2)cs1 (centres undefined) | > 67.6 µM (inactive) |
| O=C(Nc1ncccc1O)c1ccc(C(=O)c2ccccc2)cc1 | 4.55 µM |
| Oc1ccccc1-c1cc(-c2ccc(Cl)cc2)n[nH]1 | > 67.5 µM (inactive) |
| O=C(/C=C/c1ccccc1)N1CCC(c2ccccc2)C1 (centres undefined) | > 67.5 µM (inactive) |
| Cc1ccc(NC(=S)N/C(=N/S(=O)(=O)c2ccccc2)c2ccccc2)cc1 | > 67.5 µM (inactive) |
| O=c1[nH]cnc2cc(-c3ccccc3)sc12 | > 67.5 µM (inactive) |
| Cc1cccc(/C=C\c2nc3ccccc3c(=O)[nH]2)c1 | > 67.5 µM (inactive) |
| Cc1cc(N=Nc2ccc3ccccc3c2)ccc1O | > 67.6 µM (inactive) |
| CCCSc1nsc(NC(=O)CC)n1 | > 67.5 µM (inactive) |
| Clc1ccc(Nc2nc(-c3cccs3)cs2)nc1 | > 67.5 µM (inactive) |
| Fc1ccc(-n2nnc(-c3cccnc3Cl)n2)cc1 | > 67.5 µM (inactive) |
| Cn1c(NC(=O)CCc2ccccc2)cc(=O)n(C)c1=O | > 67.5 µM (inactive) |
| Cc1nn(-c2nnc(NC3CCCCC3)nn2)c(C)c1Br | > 67.6 µM (inactive) |
| Oc1cccc(/C=C/c2ccc3cccc(O)c3n2)c1 | > 67.6 µM (inactive) |

| Compound | EC50 |
| --- | --- |
| CCOc1ccc2nc(NC(=O)Nc3cccs3)sc2c1 | > 67.5 µM (inactive) |
| Cc1nnc(SCC(=O)Nc2nsc(-c3ccc(C(C)(C)C)cc3)n2)s1 | > 67.5 µM (inactive) |
| COc1ccc(Oc2cnn(-c3ccccc3)c(=O)c2Br)cc1 | > 67.5 µM (inactive) |
| Nc1c(OS(=O)(=O)c2ccccc2)cccc1OS(=O)(=O)c1ccccc1 | > 67.5 µM (inactive) |
| S=C(c1ccc(-c2ccc(Cl)cc2)o1)N1CCCCC1 | > 67.5 µM (inactive) |
| Cc1cc2nn(-c3ccc(F)cc3)nc2cc1N | > 67.5 µM (inactive) |
| CN1C(=O)/C(=C/C=C2\SCCN2C)N(C)C1=S | > 67.6 µM (inactive) |
| CN(C)c1ccc2c(=O)c3ccccc3oc2n1 | > 67.6 µM (inactive) |
| Cn1c(O)c(N=NC(=O)c2ccco2)c2ccccc21 | > 67.5 µM (inactive) |
| Cc1nn(-c2ccccc2)c(Cl)c1/C=N/Nc1ccc(Cl)c(C(=O)O)c1 | > 67.5 µM (inactive) |
| Cc1ccc(/C(N)=N/OC(=O)c2ccco2)cc1 | > 67.5 µM (inactive) |
| O=[N+]([O-])c1cccnc1NCCNc1ncc(C(F)(F)F)cc1Cl | > 67.5 µM (inactive) |
| CCOC(=O)c1sc2nc3c(cc2c1N)COC(C)(CC)C3 (centres undefined) | > 67.5 µM (inactive) |
| Cc1ccc(/C=N/N=C/c2ccc(C)s2)s1 | > 67.5 µM (inactive) |
| O=c1[nH]c(=O)n(C2CC(O)C(CO)O2)cc1I (centres undefined) | > 67.6 µM (inactive) |
| CCc1sc(C(=O)Nc2ncccc2O)cc1C | inactive |
| Cc1csc(NC(=O)c2ccc3ccccc3n2)n1 | > 67.6 µM (inactive) |
| Cc1ccc(/C=N/NC(=O)c2ccccn2)s1 | > 67.6 µM (inactive) |
| Cc1cc(-c2ccncc2)n2ncc(-c3ccccc3)c2n1 | > 67.6 µM (inactive) |
| CN(C)c1cccc(-c2cnc(N3CCC(C(N)=O)CC3)s2)c1 | > 67.5 µM (inactive) |
